What was measured:
[1] = tested on: PHA-stimulated human T lymphocytes; assay: RNA synthesis in PHA-stimulated human T lymphocytes in vitro (3H-uridine); type: cell-based; conditions: for RNA synthesis, 3H-uridine c.p.m. (mean): control 3835
Description: Human T lymphocytes, incubated in vitro for 24 hours in presence of 0.5% phytohemagglutinin (PHA) and different concentrations of the tripeptides under examination, have been analyzed for RNA synthesis (cell activation) by means of 3H-uridine labelling.

[2] = tested on: PHA-stimulated human T lymphocytes; assay: DNA synthesis in PHA-stimulated human T lymphocytes in vitro (3H-thymidine); type: cell-based; conditions: for DNA synthesis, 3H-thymidine c.p.m. (mean): control 22642
Description: Human T lymphocytes, incubated in vitro for 72 hours in presence of 0.5% PHA and different concentrations of the tripeptides under examination, have been analyzed for DNA synthesis (cell proliferation) by means of 3H-thymidine labelling.

N=C(N)NCCC[C@H](N)C(=O)NCC(=O)N[C@H](CC(=O)O)C(=O)O [ARG--GLY--D--ASP, L-Arginyl-glycyl-D-Aspartic acid]
PHA-induced human T lymphocyte activation (RNA synthesis) ([1]; 24 hours, 0.5% PHA): able to increase | RNA synthesis Δ % ([1]; peptide 0.0001 mcg/ml): -8% | RNA synthesis, 3H-uridine c.p.m. (mean) ([1]; peptide 0.0001 mcg/ml, 24 hours, 0.5% PHA): 3517 c.p.m. | RNA synthesis Δ % ([1]; peptide 0.001 mcg/ml): +8% | RNA synthesis, 3H-uridine c.p.m. (mean) ([1]; peptide 0.001 mcg/ml, 24 hours, 0.5% PHA): 4129 c.p.m. | RNA synthesis Δ % ([1]; peptide 0.01 mcg/ml): +12% | RNA synthesis, 3H-uridine c.p.m. (mean) ([1]; peptide 0.01 mcg/ml, 24 hours, 0.5% PHA): 4283 c.p.m. | RNA synthesis Δ % ([1]; peptide 0.1 mcg/ml): +25% | RNA synthesis, 3H-uridine c.p.m. (mean) ([1]; peptide 0.1 mcg/ml, 24 hours, 0.5% PHA): 4777 c.p.m. | RNA synthesis Δ % ([1]; peptide 1 mcg/ml): +22% | RNA synthesis, 3H-uridine c.p.m. (mean) ([1]; peptide 1 mcg/ml, 24 hours, 0.5% PHA): 4682 c.p.m. | RNA synthesis Δ % ([1]; peptide 10 mcg/ml): +13% | RNA synthesis, 3H-uridine c.p.m. (mean) ([1]; peptide 10 mcg/ml, 24 hours, 0.5% PHA): 4346 c.p.m. | PHA-induced human T lymphocyte proliferation (DNA synthesis) ([2]; 72 hours, 0.5% PHA): able to increase | DNA synthesis Δ % ([2]; peptide 0.0001 mcg/ml): -3% | DNA synthesis, 3H-thymidine c.p.m. (mean) ([2]; peptide 0.0001 mcg/ml, 72 hours, 0.5% PHA): 21898 c.p.m. | DNA synthesis Δ % ([2]; peptide 0.001 mcg/ml): +2% | DNA synthesis, 3H-thymidine c.p.m. (mean) ([2]; peptide 0.001 mcg/ml, 72 hours, 0.5% PHA): 23029 c.p.m. | DNA synthesis Δ % ([2]; peptide 0.01 mcg/ml): +8% | DNA synthesis, 3H-thymidine c.p.m. (mean) ([2]; peptide 0.01 mcg/ml, 72 hours, 0.5% PHA): 24551 c.p.m. | DNA synthesis Δ % ([2]; peptide 0.1 mcg/ml): +15% | DNA synthesis, 3H-thymidine c.p.m. (mean) ([2]; peptide 0.1 mcg/ml, 72 hours, 0.5% PHA): 26090 c.p.m. | DNA synthesis Δ % ([2]; peptide 1 mcg/ml): +16% | DNA synthesis, 3H-thymidine c.p.m. (mean) ([2]; peptide 1 mcg/ml, 72 hours, 0.5% PHA): 26170 c.p.m. | DNA synthesis Δ % ([2]; peptide 10 mcg/ml): +9% | DNA synthesis, 3H-thymidine c.p.m. (mean) ([2]; peptide 10 mcg/ml, 72 hours, 0.5% PHA): 24570 c.p.m.

From patent US4929601A, “Tripeptides useful as immunostimulants as well as in the prevention of metastases” (Ellem Industria Farmaceutica, S.p.A., priority 1987, dated 1990)
